Assay results taken from US9034576B2, “Systems and methods for measuring translation of target proteins in cells” (ANIMA CELL METROLOGY INC., priority 2009, dated 2015).

Assays:
[1] = test system: premature termination codons (PTC); conditions: genetic disorders with premature termination codons; Welch E M et al, Nature 2007; cited from earlier work
CHO cells = assay: Live cell tRNA:tRNA FRET imaging before and after cycloheximide treatment; format: cell-based; conditions: CHO cells transfected with rhodamine 110 (donor) and Cy3 (acceptor) labeled bulk yeast tRNA; same cells imaged prior to and following treatment
Method: (§1) Fluorescent labeled tRNA were then introduced into live HEK-293, HeLa and CHO cells, employing a transfection protocol. One day prior to the transfection experiment, the cells were seeded on fibronectin-coated glass slides in a 24-well plate. On the following day, the growth medium was removed and 0.5 ml of fresh medium was added to each well containing the sub-confluent monolayers. 10 minutes later, 0.1 ml of the labeled-tRNA mixed with the transfection reagent and serum-free media were added to each well. The plate was incubated at 37° C. in a 5% CO2 incubator for 6-8 hr, followed by fixation with 4% paraformaldehyde for 20 min and mounting using fluorescent mounting medium. The fixed cells on glass slides were then visualized employing a spinning disk confocal microscope.
(§2) In order to determine the imaging parameters to be employed in the following experiments, including the degree of non-specific signal stemming from the cross-stimulation of different fluorophores, cells were transfected with donor only and with acceptor only, and imaged in the exact conditions employed for the FRET measurement. The calibration coefficients for computing the NFret (corrected FRET) image were NFret=FRET−0.011*donor−0.004*acceptor. […]

HEK cells = assay: as above; format: cell-based; conditions: HEK cells transfected with rhodamine 110 (donor) and Cy3 (acceptor) labeled bulk yeast tRNA; same cells imaged prior to and following treatment
Method: as §1, §2

| Structure (SMILES) | amount of required protein produced [1] | FRET signal intensity (CHO cells) | FRET signal intensity (HEK cells) |
| --- | --- | --- | --- |
| O=C(O)c1cccc(-c2noc(-c3ccccc3F)n2)c1 [PTC124] | 1-5 % of normal concentrations |  |  |
| C[C@@H]1C[C@@H]([C@H](O)CC2CC(=O)NC(=O)C2)C(=O)[C@@H](C)C1 [cycloheximide] |  | increase in FRET signal intensity | increase in FRET signal intensity |
